Laboratory results reported in US4288590A, “7 -[Dα-(4-Hydroxy-1,5-naphthyridine-3-carboxamido)-α-arylacetam ido]-3-(N,N-dimethyl-aminomethylpyridinium) methyl-3-cephem-4-carboxylates” (Bristol-Myers Company, priority 1980, dated 1981).
Converted amounts (≈) assume the structure as drawn. Structures can show the parent of a compound that is named as a salt. Where two headings read alike, the source gives them in different places.

How the values were obtained:
Assay in all cases: MIC, serial two-fold agar dilution (Table 1)
Assay type in all cases: cell-based
Ps. aeruginosa A15150 = settings: Pseudomonas aeruginosa, Mueller-Hinton agar
Protocol: (§1) Minimum inhibitory concentrations (MIC) of BB-S 651, BB-S 669 and BB-S 676 were determined by serial two-fold agar dilution method using Steers' apparatus on Mueller-Hinton agar plate against 15 test organisms for primary screening as shown in Table 1.

Ps. aeruginosa A9843 = settings: Pseudomonas aeruginosa, Mueller-Hinton agar
Protocol: as §1

Ps. aeruginosa A20717 = settings: Pseudomonas aeruginosa, Mueller-Hinton agar
Protocol: as §1

[1] = tested on: S. aureus BX-1633-2 A9606; settings: Staphylococcus aureus, BX16332A9606
Protocol: as §1

S. marcescens A20019 = settings: Serratia marcescens, Mueller-Hinton agar
Protocol: as §1

S. aureus Smith A9537 = settings: Staphylococcus aureus, SMITHA9537, Mueller-Hinton agar
Protocol: as §1

S. aureus 209P A9497 = settings: Staphylococcus aureus
Protocol: as §1

E. coli A9660 = settings: Escherichia coli; E. coli A9660, cephalothin-sensitive; Mueller-Hinton agar
Protocol: as §1

S. aureus #193 = settings: Staphylococcus aureus
Protocol: as §1

E. coli A15164 = settings: Escherichia coli; E. coli A15164, cephalothin-resistant; Mueller-Hinton agar
Protocol: as §1

E. coli Juhl A15119 = settings: Escherichia coli, JUHLA15119; E. coli Juhl A15119, cephalothin-sensitive; Mueller-Hinton agar
Protocol: as §1

E. cloacae A9656 = settings: Enterobacter cloacae, Mueller-Hinton agar
Protocol: as §1

Ps. aeruginosa A20229 = settings: Pseudomonas aeruginosa, Mueller-Hinton agar
Protocol: as §1

Ps. aeruginosa A20718 = settings: Pseudomonas aeruginosa, Mueller-Hinton agar
Protocol: as §1

E. coli A15148 = settings: Escherichia coli; E. coli A15148, cephalothin-resistant; Mueller-Hinton agar
Protocol: as §1

[2] = S. aureus BX-1633-2 A9606, penicillinase-producing, Mueller-Hinton agar, read-out: MIC
[3] = S. aureus 209P A9497, Mueller-Hinton agar, read-out: MIC
[4] = S. aureus #193, penicillinase-producing, Mueller-Hinton agar, read-out: MIC

| Compound | MIC (Ps. aeruginosa A15150) | MIC (Ps. aeruginosa A9843) | MIC (Ps. aeruginosa A20717) | MIC [1, 2] | MIC (S. marcescens A20019) | MIC (S. aureus Smith A9537) | MIC (S. aureus 209P A9497; [3]) | MIC (E. coli A9660) | MIC (S. aureus #193; [4]) | MIC (E. coli A15164) | MIC (E. coli Juhl A15119) | MIC (E. cloacae A9656) | MIC (Ps. aeruginosa A20229) | MIC (Ps. aeruginosa A20718) | MIC (E. coli A15148) | MIC [1] | MIC (S. aureus #193) | MIC (S. aureus 209P A9497; 209P) |
| --- | --- | --- | --- | --- | --- | --- | --- | --- | --- | --- | --- | --- | --- | --- | --- | --- | --- | --- |
| CN(C)Cc1ccc[n+](CC2=C(C(=O)[O-])N3C(=O)C(NC(=O)[C@H](NC(=O)c4cnc5cccnc5c4O)c4ccccc4)C3SC2)c1 (stereo partly drawn) [BB-S 676, 7-[D-α-(4-Hydroxy-1,5-naphthyridine-3-carboxamido)α-phenylacetamido]-3-(3-N,N-dimethylaminomethylpyridinium)methyl-3-cephem-4-carboxylateHydrochloride] | 1.6 mg/L | 3.1 mg/L | 6.3 mg/L | 6.3 mg/L | 50 mg/L | 3.1 mg/L | 1.6 mg/L | 3.1 mg/L | 6.3 mg/L | 50 mg/L | 12.5 mg/L | 50 mg/L | 3.1 mg/L | 1.6 mg/L | 6.3 mg/L | – | – | – |
| CC1(C)S[C@@H]2[C@H](NC(=O)C(C(=O)O)c3ccccc3)C(=O)N2[C@H]1C(=O)O (stereo partly drawn) [Carbenicillin, reference compound] | 25 mg/L (≈ 66.1 µM) | 50 mg/L (≈ 132 µM) | > 100 mg/L | – | 3.1 mg/L (≈ 8.19 µM) | 0.2 mg/L (≈ 0.529 µM) | 0.2 mg/L (≈ 0.529 µM) | 0.8 mg/L (≈ 2.11 µM) | – | 6.3 mg/L (≈ 16.6 µM) | 3.1 mg/L (≈ 8.19 µM) | 3.1 mg/L (≈ 8.19 µM) | 50 mg/L (≈ 132 µM) | 25 mg/L (≈ 66.1 µM) | 3.1 mg/L (≈ 8.19 µM) | 12.5 mg/L (≈ 33 µM) | 12.5 mg/L (≈ 33 µM) | – |
| CN(C)Cc1cc[n+](CC2=C(C(=O)[O-])N3C(=O)C(NC(=O)[C@H](NC(=O)c4cnc5cccnc5c4O)c4ccc(O)cc4)C3SC2)cc1 (stereo partly drawn) [BB-S 669, 7-[D-α-(4-Hydroxy-1,5-naphthyridine-3-carboxamido)-α-(4-hydroxyphenyl)acetamido]-3-(4-N,N-dimethylaminomethylpyridinium)methyl-3-cephem-4-carboxylate Hydrochloride] | 0.8 mg/L | 1.6 mg/L | 3.1 mg/L | 25 mg/L | 12.5 mg/L | 6.3 mg/L | – | 0.8 mg/L | 25 mg/L | 6.3 mg/L | 1.6 mg/L | 3.1 mg/L | 1.6 mg/L | 0.8 mg/L | 0.8 mg/L | – | – | 3.1 mg/L |
